Laboratory results: PMC6766826, “Antiproliferative S-Trityl-L-Cysteine -Derived Compounds as SIRT2 Inhibitors: Repurposing and Solubility Enhancement” (Molecules, 2019)
Where a name gives a salt, the structure may show the parent alone. Each block holds one compound with its values, some of them ahead of it.

What was measured:
[1] = biological target: T1, SIRT2 (Homo sapiens, UniProt Q8IXJ6); test: In vitro SIRT2 deacetylase inhibition, electrophoretic mobility shift assay; assay type: biochemical; conditions: for IC50: recombinant SIRT2, FAM-RHKK(Ac)LM peptide, 1 mM NAD, 60 min 37 °C, mean ± SD, read-out: IC50 against SIRT2; for SIRT2 inhibition activity (in words): in vitro
T1 sequence (Q8IXJ6 1-389): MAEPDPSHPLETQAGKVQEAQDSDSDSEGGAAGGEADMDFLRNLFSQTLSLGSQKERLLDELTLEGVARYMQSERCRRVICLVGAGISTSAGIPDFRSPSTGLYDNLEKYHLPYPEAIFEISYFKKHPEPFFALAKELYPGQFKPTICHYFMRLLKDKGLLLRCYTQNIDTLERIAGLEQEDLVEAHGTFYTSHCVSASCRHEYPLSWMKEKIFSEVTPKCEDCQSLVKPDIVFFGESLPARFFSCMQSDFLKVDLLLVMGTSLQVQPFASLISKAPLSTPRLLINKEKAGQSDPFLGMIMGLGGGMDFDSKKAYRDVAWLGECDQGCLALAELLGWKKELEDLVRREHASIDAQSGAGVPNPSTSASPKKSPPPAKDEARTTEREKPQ
From the text: The designs of the new STLC derivatives were based on TH-3 by conserving its trityl group, whereas the L-histidine moiety was replaced by L-cysteine. To obtain exhaustive structure–activity relationship (SAR) information, the amino group was reductively alkylated or acylated using different substituted aldehydes and acyl chlorides, respectively. The terminal methyl ester group was kept or converted to hydrazide (Figure 2). […] Two noncommercially available aldehydes, 4-(dimethylamino)picolinaldehyde and 4-(diethylamino)picolinaldehyde, were prepared as described previously. Thereafter, the in vitro SIRT2 inhibitory activities of these synthesized compounds were examined using electrophoretic mobility shift assays
Deacetylase activities of SIRT2 were measured with an electrophoretic mobility shift assay. […] After 60 min at 37 °C, the reaction was stopped by adding nicotinamide (final concentration 10 mM) in 50 μL stop buffer (100 mM HEPES (pH 7.5), 10 mM EDTA, 0.25% CR-3). The samples were analyzed using a LabChip EZ Reader II (PerkinElmer, Waltham, MA, USA). Percent conversion was defined as 100 × P / (P + S), where P and S are peak heights of the product and peptide substrate, respectively. The IC50 values were determined as means with standard deviation calculated from at least three independent dose–response curves using Origin software (OriginLab, Northampton, MA, USA).

[2] = tested on: MCF-7; test: MTT assay, MCF-7 cells; assay type: cell-based, human; conditions: breast cancer
From the text: (§1) Next, the three active compounds (STC4, STC9, and STC11) were utilized for a cell-based assay to explore their potential antiproliferative effect against different cancer cell lines, including MCF7 (breast cancer), HeLa (cervical cancer), and different genotypes of leukemic cells (K562, MT-2, and HL-60) using an MTT assay. […] In general, STC11 cellular activity was less than STC4 and STC9. This may be explained by the lower cellular permeability due to the presence of the more polar hydrazide group.
(§2) HeLa human cervical carcinoma cell lines were incubated in Dulbecco’s modified Eagle’s medium. MCF-7 human breast cancer, leukemic (K562, HL-60, MT-2, and Jurkat), and normal blood (PBMC) (Precision Bioservices, Frederic, MD, USA) cells were incubated in RPMI1640 medium. All media (Wako, Osaka, Japan) were supplemented with 10% fetal bovine serum (Sigma-Aldrich, St. Louis, MO, USA) and 89 μg/mL streptomycin (Meiji Seika, Tokyo, Japan) at 37 °C in a humidified atmosphere of 95% air and 5% CO2. Exponentially growing cells were cultured in 24-well and 96-well plates (Iwaki brand Asahi Glass, Tokyo, Japan) at 2 × 10^4 cells/mL and 1 × 10^6 cells/mL, respectively, for 96 h before the addition of drugs (optimum cell number for cytotoxicity assays was determined in preliminary experiments). Stock solutions of compounds in concentrations between 0.01–10 mM were prepared in dimethyl sulfoxide (DMSO; Wako, Osaka, Japan) and further dilution was made with fresh culture medium. The concentration of DMSO in the final culture medium was 1%, which had no effect on cell viability.
(§3) The level of cellular MTT (Dojindo, Kumamoto, Japan) reduction was quantified as described previously […] At the end of this period, cells were stained with MTT solution and incubated for an additional 4 h at 37 °C. After the medium was removed, the formazan crystals were solubilized by addition of 100 μL DMSO to each well, and absorbance was determined using an Infinitive M1000 plate reader (Tecan, Mannedorf, Switzerland) at a wavelength of 550 nm with background subtraction at 630 nm. Every concentration was repeated in three wells, and IC50 values were calculated from MTT results and defined as the drug concentrations that reduced absorbance to 50% of the control values.

[3] = tested on: HeLa; test: MTT assay, HeLa cells; assay type: cell-based, human; conditions: 96 h exposure, cervical cancer
From the text: as §1, §2, §3

[4] = tested on: HL-60; test: MTT assay, HL-60 cells; assay type: cell-based, human; conditions: leukemic cells
From the text: as §1, §2, §3

[5] = tested on: K562; test: MTT assay, K562 cells; assay type: cell-based, human; conditions: leukemic cells
From the text: as §1, §2, §3

[6] = tested on: MT-2; test: MTT assay, MT-2 cells; assay type: cell-based, human; conditions: leukemic cells
From the text: as §1, §2, §3

[7] = tested on: plasmid DNA (pUC19 DNA); test: DNA cleavage assay with plasmid DNA; conditions: 1 μM concentration, 37 °C, 2 h, with and without iron (II), H2O2, ascorbic acid
Protocol: We then tested DNA cleavage as a possible molecular mechanism for cytotoxicity of the tested compounds using plasmid DNA (pUC19 DNA) witH- and without iron (II), H2O2, and ascorbic acid complex (Figure 3). The DNA cleavage reaction was carried out by incubating the reaction mixture at 37 °C for 2 h, and electrophoresis was performed. After electrophoresis, the DNA was stained with ethidium bromide, and the bands were visualized by exposure to ultraviolet radiation and recorded using an electronic camera. […] Furthermore, these compounds may activate oxygen in the cytoplasm. This may explain their high cellular cytotoxic activity owing to a dual effect combining SIRT2 inhibition and DNA cleavage.
The DNA cleavage assays were performed as described previously. Intensity of the bands was quantitated using ImageJ software (NIH, Bethesda, MD, USA).
Figure 3 The inhibitory effects of selected compounds on DNA cleavage in the presence and absence of FeSO4, H2O2, and ascorbic acid. (A) Form I (supercoil), form II (single strand break), and form III (double strand break) bands after electrophoresis. The Form I band is the lower and the Form II band is the upper portion. The pUC19 enzyme cut (by EcoR I) generates form III with mid mobility (the second lane from the left). (B) Relative intensity of form I and form II bands.

[8] = tested on: NCI 60 tumor cell line; design: method as in doi:10.1002/ddr.430340203; conditions: NCI 60 tumor cell line screen; cited from earlier work
[9] = Homo sapiens, MCF7, 96 h exposure
[10] = Homo sapiens, HL-60, 96 h exposure
[11] = Homo sapiens, K562, 96 h exposure
[12] = Homo sapiens, MT2, 96 h exposure

Structure (SMILES): COC(=O)[C@H](CSC(c1ccccc1)(c1ccccc1)c1ccccc1)NCc1ccc(N(C)C)cc1OC [STC6, Methyl N-(2-methoxy-4-(dimethylamino)benzyl)-S-trityl-L-cysteinate]
IC50 [1]: > 100 µM

Structure (SMILES): CCN(CC)c1ccnc(CN[C@H](Cc2cn(C(c3ccccc3)(c3ccccc3)c3ccccc3)cn2)C(=O)OC)c1 [TH-3, reference compound]
IC50 [1]: 1.3 ± 0.2 µM
IC50 [2, 9]: 0.71 ± 0.08 µM
IC50 ([3]; Homo sapiens, HeLa): 0.37 ± 0.04 µM
IC50 [4, 10]: 0.28 ± 0.04 µM
IC50 [5, 11]: 0.3 ± 0.02 µM
IC50 [6, 12]: 0.17 ± 0.02 µM

Structure (SMILES): CCN(CC)c1ccnc(CN[C@@H](CSC(c2ccccc2)(c2ccccc2)c2ccccc2)C(=O)OC)c1 [STC9, Methyl N-((4-(diethylamino)pyridin-2-yl)methyl)-S-trityl-L-cysteinate]
IC50 [1]: 17.2 ± 1.2 µM
IC50 [2, 9]: 3.32 ± 0.41 µM
DNA cleavage effect [7]: strongest DNA cleavage effect
IC50 ([3]; Homo sapiens, HeLa): 2.72 ± 0.19 µM
IC50 [4, 10]: 1.19 ± 0.09 µM
IC50 [5, 11]: 2.53 ± 0.31 µM
IC50 [6, 12]: 2.55 ± 0.28 µM

Structure (SMILES): COC(=O)[C@H](CSC(c1ccccc1)(c1ccccc1)c1ccccc1)NC(=O)c1cc(N(C)C)ccn1 [STC10, Methyl N-(4-(dimethylamino)picolinoyl)-S-trityl-L-cysteinate]
SIRT2 inhibition activity (in words) [1]: no activity
IC50 [1]: > 100 µM

Structure (SMILES): CN(C)c1ccnc(CN[C@H](CSC(c2ccccc2)(c2ccccc2)c2ccccc2)C(=O)NN)c1 [STC11, (S)-2-(((4-(dimethylamino)pyridin-2-yl)methyl)amino)-3-(tritylthio)propanehydrazide]
IC50 [1]: 9.5 ± 1.2 µM
IC50 [2, 9]: 10 ± 1.12 µM
IC50 ([3]; Homo sapiens, HeLa): 7.95 ± 0.81 µM
IC50 [4, 10]: 12.8 ± 0.95 µM
IC50 [5, 11]: 15 ± 1.17 µM
IC50 [6, 12]: 16.8 ± 1.04 µM

Structure (SMILES): N[C@@H](CSC(c1ccccc1)(c1ccccc1)c1ccccc1)C(=O)O [STLC, S-trityl-L-cysteine]
half maximal tumor growth inhibition concentration [8]: 1.3 µM

Structure (SMILES): Cc1cc(C)nc(SCC(=O)Nc2ncc(Cc3cccc4ccccc34)s2)n1 [SirReal2, reference compound]
IC50 ([2]; 96 h exposure): 17.1 ± 2.15 µM
IC50 [3]: 10.4 ± 0.94 µM
IC50 ([4]; 96 h exposure): 90.6 ± 8.77 µM
IC50 ([5]; 96 h exposure): 13.7 ± 0.44 µM
IC50 ([6]; 96 h exposure): 17.9 ± 1.52 µM

Structure (SMILES): COC(=O)C(N)CSC(c1ccccc1)(c1ccccc1)c1ccccc1 (stereo in doubt) [Compound 1, S-Trityl-L-Cysteine Methyl Ester Hydrochloride]
SIRT2 inhibition activity (in words) [1]: inactive
IC50 [1]: > 100 µM

Structure (SMILES): CCN(CC)c1ccc(CN[C@@H](CSC(c2ccccc2)(c2ccccc2)c2ccccc2)C(=O)OC)cc1 [STC2, Methyl N-(4-(diethylamino)benzyl)-S-trityl-L-cysteinate]
IC50 [1]: > 100 µM

Continued, in another order:

IC50 [1]: > 100 µM
Structure (SMILES): COC(=O)[C@H](CSC(c1ccccc1)(c1ccccc1)c1ccccc1)NCc1cccc(Br)n1 [STC1, Methyl N-((6-bromopyridin-2-yl)methyl)-S-trityl-L-cysteinate]

IC50 [1]: > 100 µM
Structure (SMILES): COC(=O)[C@H](CSC(c1ccccc1)(c1ccccc1)c1ccccc1)NCc1cnc2ccccc2c1 [STC7, Methyl N-(quinolin-3-ylmethyl)-S-trityl-L-cysteinate]

IC50 [1]: > 100 µM
Structure (SMILES): COC(=O)[C@H](CSC(c1ccccc1)(c1ccccc1)c1ccccc1)NCc1ccc(N(C)C)cc1 [STC3, Methyl N-(4-(dimethylamino)benzyl)-S-trityl-L-cysteinate]

SIRT2 inhibition activity (in words) [1]: devoid of SIRT2 inhibition activity
IC50 [1]: > 100 µM
Structure (SMILES): COC(=O)[C@H](CSC(c1ccccc1)(c1ccccc1)c1ccccc1)NCc1ccccn1 [STC8, Methyl N-(pyridin-2-ylmethyl)-S-trityl-L-cysteinate]

IC50 [1]: 10.8 ± 1.9 µM
fold decrease in SIRT2 inhibition activity compared with TH-3 ([1]; vs TH-3): 10 fold
IC50 [2, 9]: 3.16 ± 0.26 µM
IC50 ([3]; Homo sapiens, HeLa): 1.56 ± 0.17 µM
IC50 [4, 10]: 0.45 ± 0.05 µM
IC50 [5, 11]: 2.17 ± 0.25 µM
Structure (SMILES): COC(=O)[C@H](CSC(c1ccccc1)(c1ccccc1)c1ccccc1)NCc1cc(N(C)C)ccn1 [STC4, Methyl N-((4-(dimethylamino)pyridin-2-yl)methyl)-S-trityl-L-cysteinate]
IC50 [6, 12]: 3.15 ± 0.13 µM

IC50 [1]: > 100 µM
Structure (SMILES): COC(=O)[C@H](CSC(c1ccccc1)(c1ccccc1)c1ccccc1)NCc1ccc(N(C)C)cc1Cl [STC5, Methyl N-(2-chloro-4-(dimethylamino)benzyl)-S-trityl-L-cysteinate]
